Reference: patent US8859615B2, “Compounds, compositions and methods for reducing toxicity and treating or preventing diseases” (priority 2008, dated 2014)
Where “and” joins values, the source holds several entries; their conditions need not be identical. Equal entries are not always repeated. Where two headings read alike, the source gives them in different places.

Experiments:
[1] = test system: human colon carcinoma HCT-116 xenografts; assay: Compound D with Iso-Oxazole-Fludelone or Isodehydelone in nude mice bearing HCT-116 xenografts; conditions: FIG. 15; Isodehydelone 6 hr-iv infusion, with or without oral Compound (D); n=7
[2] = test system: CCRF-CEM human T-cell acute lymphoblastic leukemia cells; assay: In vitro cytotoxicity against CCRF-CEM (XTT / CCK-8 tetrazolium assay, 72 hr); conditions: Homo sapiens, CCRF-CEM, 72 h
Procedure: (§1) The cytotoxicity IC50 of each compound was measured with the XTT assay using the 2,3-bis(2-methoxy-4-nitro-5-sulfophenyl)-5-[(phenylamino)carbonyl]-2H-tetrazolium hydroxide (XTT) microculture method as described in Scudiero et al., Cancer Res., 48:4827 (1988), the contents of which are hereby incorporated by reference in their entirety. The CCK-8 assay is a cell counting kit-8 (CCK-8) tetrazolium assay using a 96-well microplate (Dojindo Molecular Technologies, Inc., Rockville, Md.) (M. Ishiyama et al., Biol. Pharm. Bull. 19: 1518, 1996). Absorbance was measured by Powerwave a XS microplate spectrophotometer. This method described is considered a general method in vitro cytotoxicity studies.
(§2) The data in Tables 2X, 3A-E, 4, 5, and 6 were obtained using the cell counting kit-8 (CCK-8) tetrazolium assay in a 96-well microplate. Five to seven concentrations of each compound in triplicate were used, and the IC50 values were determined by CompuSyn software automation (Chou T C. and Martin N. ComboSyn, Inc., 2006) based on the median-effect equation and plot (Chou T C. J. Theor. Biol. 59:235-276, 1976; Chou T C. Pharmacol. Rev. 58: 621-681, 2006). […] The r value defines the correlation coefficient of the median-effect plot which signifies the conformity to the mass-action law principle (Chou T C. J. Theor. Biol. 59:235-276, 1976; Chou T C. Pharmacol. Rev. 58:621-681, 2006). These parameters were determined by CompuSyn simulation (available at http://www.combosyn.com).
(§3) CCRF-CEM human T-cell acute lymphoblastic leukemia cells and the corresponding vinblastine-resistant cells (CCRF-CEM/VBL100) were cultured at an initial density of 5×10^4 cells per milliliter. The cultured cells were maintained in a 5% CO2-humidified atmosphere at 37° C. in RPMI medium 1640 (GIBCO/BRL) containing penicillin (100 units/mL), streptomycin (100 μg/mL, GIBCO/BRL), and 10% heat-inactivated fetal bovine serum. The cytotoxicity of each Compound of the invention was measured using the 2,3-bis(2-methoxy-4-nitro-5-sulfophenyl)-5-[(phenylamino)carbonyl]-2H-tetrazolium hydroxide (XTT) microculture method as described in Scudiero et al., Cancer Res., 48:4827 (1988), the contents of which are hereby incorporated by reference in their entirety.
(§4) Absorbance was measured by Powerwave XS microplate spectrophotometer.

[3] = test system: CCRF-CEM/VBL100 vinblastine-resistant cells; assay: In vitro cytotoxicity against vinblastine-resistant CCRF-CEM subline; assay type: cell-based, human; conditions: for IC50: Homo sapiens, CCRF-CEM, 72 h
Procedure: as §1, §2, §3, §4

[4] = test system: leukemic CCRF CEM cells; assay: Precursor incorporation into DNA, RNA and protein (Table 9); assay type: cell-based, human
Procedure: The radioactive tracer studies were carried out as described by Chou T C, et al. Cancer Res. 43: 3074-3079, 1983.

[5] = test system: human lymphoblastic leukemic T-cell growth; assay: Cytotoxic activity relative to stability during storage at −20° C. in DMSO (Table 10); assay type: cell-based; conditions: Homo sapiens, CCRF-CEM, 72 h, XTT, 72 hr
Description: Without wishing to be bound by theory, the oxidized versions may be active metabolites. This theory provides an explanation of the delayed onset of therapeutic effects seen in the figures herein. The oxidized compounds may be active agents that are formed slowly upon metabolic oxidation. […] The active metabolites may explain the biphasic pharmacological properties of panaxytriol or Compound D that have been observed (FIGS. 9B, C, D; FIGS. 11D, E, F, and FIGS. 12D, E). […] Induction of the phase 2 enzymes may slow oxidation of the compounds (Ng et al., Tetrahedron Letters. 49: 7178-7179 (2008)).

[6] = test system: human mammary carcinoma MX-1 cells; assay: In vitro drug combination (median-effect / combination index, DRI) against MX-1 cell growth (Tables 5, 5A); assay type: cell-based; conditions: for IC50: MX-1, 72 hrs
Procedure: as §2
Efficacy of panaxytriol in combination with Fludelone (an illustrative tubulin-binding anticancer agent) was measured according to procedures described in more detail by Chou et al. (1984) Adv. Enz. Regul., 22:27-55, Chou et al. (1994) Nat'l Cancer Inst., 86:1517-1524, and Chou (2006) Pharmacological Reviews, […]:621-681. Software packages used for data analyses were CalcuSyn for Windows (Chou and Hayball., Multiple-drug dose effect analyzer and manual, Biosoft, Cambridge Place, Cambridge, U.K (1996)) and CompuSyn for Drug Combinations (Chou and Martin, Software for determination of synergism and antagonism and determination of IC50, ED50 and LD50, ComboSyn Inc., Paramus, N.J. (2005)). The entire contents of each of the above references are incorporated by reference in their entireties. […] DRI quantitates synergy as how many fold less of a dose is required to obtain a given level of effect for a combination of drugs versus the same effect for an individual component of the combination.

[7] = test system: quinone reductase (NQO1) in Hepa 1c1c7 murine hepatoma cells; assay: Phase 2 enzyme inducer activity (Prochaska microtiter plate bioassay); conditions: Hepa 1c1c7 cells
Procedure: Pure panaxytriol was dissolved in dimethyl sulfoxide. Phase 2 enzyme inducer activity was measured using a rapid assay of activity of representative phase 2 enzyme in a cell line. This assay was originally developed by Prochaska and colleagues as in Prochaska H J, Santamaria A B, Talalay P. “Rapid detection of inducers of enzymes that protect against carcinogens.” Proc Natl Acad Sci US A 1992; 89:2394-2398, and has been further refined as in Fahey J W, Dinkova-Kostova A T, Stephenson K K, Talalay P. “The “Prochaska” microtiter plate bioassay for inducers of NQO1.” Methods Enzymol. 2004; 382:243-258, each of which are incorporated by reference in its entirety. Briefly, Hepa 1c1c7 murine hepatoma cells were grown in 96-well microtiter plates. Serial dilutions of the extracts or compounds which were assayed were added into the wells. After 48 hours, the cells were lysed and the activity of quinone reductase (NQO1) was assayed by the addition of a reaction mixture containing an NADPH-generating system, menadione and MTT. NQO1 catalyzes the reduction of menadione to menadiol by NADPH, and MTT is reduced nonenzymatically by menadiol, resulting in the formation of a blue color that can then be quantitated as in Prochaska H J, Santamaria A B. “Direct measurement of NAD(P)H:quinone reductase from cells cultured in microtiter wells: a screening assay for anticarcinogenic enzyme inducers.” Anal. Biochem. 1988; 169:328-336, which is incorporated by reference in its entirety. […] NQO1 activity and protein content of the lysate were measured in duplicate plates with an optical microtiter plate absorbance reader. […] One unit of inducer activity is defined as the amount that, when added to a single microtiter well, doubles the NQO1 specific activity. Sulforaphane and β-naphthoflavone were used as positive controls in each bioassay. […] NQO1 inducer activity was assayed as described herein, and is reported here as treated/control at different concentrations of ginseng extract or component per well. […] (+) Panaxytriol (molecular weight […]), (Δ) Protopanaxatriol (molecular weight 461), (◯) Korean red SUN GINSENG® extract. The reductase assay can also be performed as disclosed in PCT Publication No. WO 06/023821, the entire contents of which are hereby incorporated in the instant application.

[8] = test system: CCRF-CEM subline resistant to TAXOL; assay: In vitro cytotoxicity against TAXOL-resistant CCRF-CEM subline; assay type: cell-based, human; conditions: Table 3A-2
Procedure: as §2, §4

[9] = Procedure: The experimental procedure for FIG. 14 was carried out similarly to that in FIG. 1. * means P<0.1 and ** means P<0.05. Body weight was calculated as described for FIGS. 1 and 4-7.
The experiments were performed as indicated for FIG. 14, with Compound (K) being administered orally. Compound K was administered on the days indicated by the arrows at the top of the graph, and paclitaxel was administered on the days indicated by the arrows on the bottom of the graph. Body weight was calculated as described for FIGS. 1, 4-7, 14 and 15. * means P<0.1 and ** means P<0.05.

[10] = for Total score: Table 11A, First Round, days 09-27; for 1st & 2nd Cycle Total Score / 2nd Cycle Total Score: Table 11C; for toxicity score (neurotoxicity): nude, mouse, in vivo
[11] = Table 5, fold dose reduction allowed in the Panaxytriol + Fludelone combination

iso-oxazole-dehydelone (17-isooxazole-dehydelone) [isodehydelone]
mice died [1]: Two

C=CC(=O)C#CC#CC[C@@H](O)[C@H](O)CCCCCCC [Compound (B)]
IC50 ([2]; read-out: IC50 CCRF-CEM, Table 3, XTT, 72-hour): 4.49 ± 0.41 µM
IC50 ([3]; read-out: IC50 CCRF ± CEM/VBL): 6.29 ± 1.41 µM
fold resistance in brackets (IC50 CCRF-CEM/VBL vs CCRF-CEM) ([3]; Table 3): 1.40 x
[3H]-AdR → RNA (% Activation ↑ or Inhibition ↓) ([4]; 15 μM, 15 min, ↑ (activation)): 30.7 ↑ %
[3H]-dThd → DNA (% Activation ↑ or Inhibition ↓) ([4]; 15 μM, 15 min, ↑ (activation)): 26.1 ↑ %
[3H]-AdR → RNA (% Activation ↑ or Inhibition ↓) ([4]; 100 μM, 60 min, ↓ (inhibition)): 82.0 ↓ %
[3H]-dThd → DNA (% Activation ↑ or Inhibition ↓) ([4]; 100 μM, 60 min, ↓ (inhibition)): 78.2 ↓ %
inhibition at 15 µM ([4]; Homo sapiens, CCRF-CEM, 15 μM, 15 min, ↓ (inhibition), read-out: [3H] Leu → Protein (% Activation ↑ or Inhibition ↓)): 62.8%
inhibition at 100 µM ([4]; Homo sapiens, CCRF-CEM, 100 μM, 60 min, ↓ (inhibition), read-out: [3H] Leu → Protein (% Activation ↑ or Inhibition ↓)): 78.2%
IC50 ([5]; read-out: IC50 in μM CCRF-CEM, Table 10, Aug. 22, 2003 (Stored), same solution kept at −20° C. in DMSO): 4.78 µM
IC50 ([5]; read-out: IC50 in μM CCRF-CEM, Table 10, Jul. 25, 2003 (Fresh)): 0.72 ± 0.14 µM
IC50 ([5]; read-out: IC50 in μM CCRF-CEM/VBL, Table 10, Aug. 22, 2003 (Stored), same solution kept at −20° C. in DMSO): 5.29 µM
IC50 ([5]; read-out: IC50 in μM CCRF-CEM/VBL, Table 10, Jul. 25, 2003 (Fresh)): 0.95 µM

C/C(=C\c1csc(C)n1)[C@@H]1C/C=C(/C(F)(F)F)C/C=C/[C@H](C)[C@H](O)[C@@H](C)C(=O)C(C)(C)[C@@H](O)CC(=O)O1 [Fludelone]
IC50 ([6]; Table 5, Panaxytriol + Fludelone combination (1.199 + 0.0012), read-out: Dose-effect parameter Dm (IC50) of the component in the combination): 1.2 nM
IC50 ([6]; Table 5, each drug alone, read-out: Dose-effect parameter Dm (IC50)): 2.7 nM
Dose-Reduction Index (DRI) at IC50 [6, 11]: 2.27
Dose-Reduction Index (DRI) at IC75 [6, 11]: 7.02
Dose-Reduction Index (DRI) at IC90 [6, 11]: 21.69
Dose-Reduction Index (DRI) at IC95 [6, 11]: 46.73
dose-reduction index (DRI) ([6]; panaxytriol + Fludelone combination, MX-1 cells): 2.27-46.73

CC(C)=CCCC(C)(O)[C@H]1CC[C@]2(C)[C@@H]1[C@H](O)C[C@@H]1[C@@]3(C)CC[C@H](O)C(C)(C)[C@@H]3CC[C@]12C (stereo in doubt) [protopanaxadiol]
significant cytotoxicity observed above [7]: above 5 μg/well

CC(=O)O[C@H]1C(=O)[C@@]2(C)[C@H]([C@H](OC(=O)c3ccccc3)[C@]3(O)C[C@H](OC(=O)[C@H](O)[C@@H](NC(=O)c4ccccc4)c4ccccc4)C(C)=C1C3(C)C)[C@]1(OC(C)=O)CO[C@@H]1C[C@@H]2O [paclitaxel]
IC50 ([2]; read-out: CCRF-CEM (IC50 in μM), Table 3A-2, CCK-8, 72-hr exposure): 0.0013 µM
IC50 ([3]; Table 3A-2, CCK-8, 72-hr exposure, read-out: CCRF-CEM/VBL (IC50 in μM)): 2.26 µM
Fold of resistance (IC50 ratio CCRF-CEM/VBL vs CCRF-CEM) ([3]; Table 3A-2): 1741 fold
IC50 ([8]; Homo sapiens, CCRF-CEM, CCK-8, 72-hr exposure, read-out: CCRF-CEM/TAXOL (IC50 in μM)): 1.12 µM
Fold of resistance (IC50 ratio CCRF-CEM/TAXOL vs CCRF-CEM) [8]: 860 fold
complete remission (CR) ([9]; FIG. 14, paclitaxel 25 mg/kg iv Q2D×8, with or without Compound K 30 mg/kg iv Q4D×14): 10/10
BW loss ([9]; mouse, in vivo): approximately 25%
decrease in BW ([9]; mouse, in vivo): 13.2%
Total score ([10]; per mouse): 8 (3×) and 2 (2×) and 0 and 5 and 3 and 10 and 7
Total score ([10]; whole group of 10 mice): 53
1st & 2nd Cycle Total Score ([10]; per mouse, listed as Taxol): 33 (2×) and 4 (2×) and 15 and 35 and 18 and 34 and 27 and 31
2nd Cycle Total Score ([10]; per mouse, listed as Taxol): 25 (2×) and 2 (2×) and 15 (2×) and 30 and 24 and 20 and 23
1st & 2nd Cycle Total Score ([10]; whole group of 10 mice): 234
2nd Cycle Total Score ([10]; whole group of 10 mice): 181
1st Total score (group) ([10]; days 12-26, sum over 11 mice of the group, first round of paclitaxel): 13
1st Total score (per mouse) ([10]; days 12-26, sum per individual mouse, first round of paclitaxel): 3 and 2 (3×) and 4
2nd Total Score up to day 42 (group) ([10]; days 28-42, sum over 11 mice of the group, second round of paclitaxel): 79
2nd Total Score up to day 42 (per mouse) ([10]; days 28-42, sum per individual mouse, second round of paclitaxel): 8 and 6 (3×) and 9 (3×) and 7 and 5 and 4 and 10
toxicity score (neurotoxicity) ([10]; 27 day): 2
toxicity score (neurotoxicity) ([10]; 59 day): 6
